Experiment [1] addresses T1, Inhibitor of nuclear factor kappa-B kinase subunit beta (Homo sapiens) (UniProt O14920).
T1 sequence (whole entry): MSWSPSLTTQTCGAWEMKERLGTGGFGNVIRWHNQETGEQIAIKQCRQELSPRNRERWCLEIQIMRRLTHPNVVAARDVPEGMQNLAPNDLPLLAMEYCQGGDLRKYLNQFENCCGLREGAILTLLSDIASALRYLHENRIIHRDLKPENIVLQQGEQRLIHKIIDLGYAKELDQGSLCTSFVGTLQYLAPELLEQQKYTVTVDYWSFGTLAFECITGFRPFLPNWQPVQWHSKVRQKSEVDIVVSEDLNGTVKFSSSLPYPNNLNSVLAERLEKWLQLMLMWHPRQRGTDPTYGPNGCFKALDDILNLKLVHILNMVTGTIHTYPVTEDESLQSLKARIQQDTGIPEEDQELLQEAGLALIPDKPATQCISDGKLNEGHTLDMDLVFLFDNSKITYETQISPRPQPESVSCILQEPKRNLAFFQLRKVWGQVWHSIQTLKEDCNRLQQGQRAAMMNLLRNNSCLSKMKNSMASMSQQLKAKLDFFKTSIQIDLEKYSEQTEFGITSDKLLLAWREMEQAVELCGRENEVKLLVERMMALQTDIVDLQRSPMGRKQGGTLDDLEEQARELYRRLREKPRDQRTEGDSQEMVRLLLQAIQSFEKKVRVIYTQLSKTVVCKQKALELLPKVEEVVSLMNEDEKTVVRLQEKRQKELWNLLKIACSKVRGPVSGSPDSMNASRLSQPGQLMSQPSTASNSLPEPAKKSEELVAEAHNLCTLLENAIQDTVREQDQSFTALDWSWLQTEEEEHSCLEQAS
Kind of experiment: Inhibition of human full length IKK beta expressed in baculovirus assessed as substrate phosphorylation using fluorescence-labelled peptides as substrate at 0.1 uM after 90 mins by microfluidic peptide phosphorylation assay.

Experiment [2] concerns the target Protein kinase C delta type (Homo sapiens) (UniProt Q05655). The experiment is described as follows: Inhibition of human truncated PKC delta expressed in baculovirus assessed as substrate phosphorylation using fluorescence-labelled peptides as substrate at 0.06 uM after 90 mins by microfluidic peptide phosphorylation assay.
Experiment [3] deals with T2, Mitogen-activated protein kinase 12 (Homo sapiens) (UniProt P53778).
T2 sequence (whole entry): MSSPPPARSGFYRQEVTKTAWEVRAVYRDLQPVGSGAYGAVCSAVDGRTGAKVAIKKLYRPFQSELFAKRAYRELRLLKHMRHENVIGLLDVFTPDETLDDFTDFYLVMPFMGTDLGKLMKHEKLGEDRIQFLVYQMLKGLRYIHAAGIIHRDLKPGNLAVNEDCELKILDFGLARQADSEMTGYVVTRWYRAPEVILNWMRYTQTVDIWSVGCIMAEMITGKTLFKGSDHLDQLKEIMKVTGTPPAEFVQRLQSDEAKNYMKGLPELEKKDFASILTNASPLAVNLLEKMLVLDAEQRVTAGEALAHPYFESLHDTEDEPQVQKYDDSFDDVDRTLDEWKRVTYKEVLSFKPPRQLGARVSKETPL
Kind of experiment: Inhibition of human full length p38 gamma expressed in Escherichia coli cell assessed as substrate phosphorylation using fluorescence-labelled peptides as substrate at 0.06 uM after 90 mins by microfluidic peptide phosphorylation assay.

Experiment [4] concerns the target T3, Serine/threonine-protein kinase BRSK2 (Homo sapiens) (UniProt Q8IWQ3).
T3 sequence (whole entry): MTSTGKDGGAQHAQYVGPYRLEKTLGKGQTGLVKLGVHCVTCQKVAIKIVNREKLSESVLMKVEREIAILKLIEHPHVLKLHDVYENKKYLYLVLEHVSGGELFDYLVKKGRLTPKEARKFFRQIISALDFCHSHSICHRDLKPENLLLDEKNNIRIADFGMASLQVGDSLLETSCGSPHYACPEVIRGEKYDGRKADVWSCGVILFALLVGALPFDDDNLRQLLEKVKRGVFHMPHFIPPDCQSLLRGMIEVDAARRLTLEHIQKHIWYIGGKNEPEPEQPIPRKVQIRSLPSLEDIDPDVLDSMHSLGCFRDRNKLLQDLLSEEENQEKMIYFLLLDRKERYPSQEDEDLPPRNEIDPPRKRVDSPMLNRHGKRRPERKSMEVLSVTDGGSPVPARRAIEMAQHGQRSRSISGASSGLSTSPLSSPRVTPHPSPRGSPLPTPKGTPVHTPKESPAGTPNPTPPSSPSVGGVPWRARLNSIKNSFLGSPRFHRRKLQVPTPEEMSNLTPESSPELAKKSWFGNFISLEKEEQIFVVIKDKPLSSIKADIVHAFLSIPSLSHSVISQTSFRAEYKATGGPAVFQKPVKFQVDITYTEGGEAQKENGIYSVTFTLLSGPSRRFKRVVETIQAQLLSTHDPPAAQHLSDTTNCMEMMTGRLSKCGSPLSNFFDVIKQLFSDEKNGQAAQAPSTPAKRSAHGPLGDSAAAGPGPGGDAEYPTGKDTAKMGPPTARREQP
The experiment is described as follows: Inhibition of human truncated BRSK2 expressed in baculovirus assessed as substrate phosphorylation using fluorescence-labelled peptides as substrate at 95 uM after 90 mins by microfluidic peptide phosphorylation assay.

Experiment [5] has as its target Fibroblast growth factor receptor 4 (Homo sapiens) (UniProt P22455). Kind of experiment: Inhibition of human FGFR4 catalytic domain expressed in baculovirus assessed as substrate phosphorylation using fluorescence-labelled peptides as substrate at 8 uM after 90 mins by microfluidic peptide phosphorylation assay.
Another experiment is filed under the species Homo sapiens. Kind of experiment: Inhibition of human full length PKA expressed in baculovirus assessed as substrate phosphorylation using fluorescence-labelled peptides as substrate at 70 uM after 90 mins by microfluidic peptide phosphorylation assay.
Experiment [6] concerns Fibroblast growth factor receptor 2 (Homo sapiens), P21802 [N549H]. The experiment is described as follows: Inhibition of human FGFR2 N549H mutant catalytic domain expressed in baculovirus assessed as substrate phosphorylation using fluorescence-labelled peptides as substrate at […] after 90 mins by microfluidic peptide phosphorylation assay.
Sequence of Fibroblast growth factor receptor 2 (Homo sapiens), P21802 [N549H] (P21802 whole entry N549H, the tested form may be a part): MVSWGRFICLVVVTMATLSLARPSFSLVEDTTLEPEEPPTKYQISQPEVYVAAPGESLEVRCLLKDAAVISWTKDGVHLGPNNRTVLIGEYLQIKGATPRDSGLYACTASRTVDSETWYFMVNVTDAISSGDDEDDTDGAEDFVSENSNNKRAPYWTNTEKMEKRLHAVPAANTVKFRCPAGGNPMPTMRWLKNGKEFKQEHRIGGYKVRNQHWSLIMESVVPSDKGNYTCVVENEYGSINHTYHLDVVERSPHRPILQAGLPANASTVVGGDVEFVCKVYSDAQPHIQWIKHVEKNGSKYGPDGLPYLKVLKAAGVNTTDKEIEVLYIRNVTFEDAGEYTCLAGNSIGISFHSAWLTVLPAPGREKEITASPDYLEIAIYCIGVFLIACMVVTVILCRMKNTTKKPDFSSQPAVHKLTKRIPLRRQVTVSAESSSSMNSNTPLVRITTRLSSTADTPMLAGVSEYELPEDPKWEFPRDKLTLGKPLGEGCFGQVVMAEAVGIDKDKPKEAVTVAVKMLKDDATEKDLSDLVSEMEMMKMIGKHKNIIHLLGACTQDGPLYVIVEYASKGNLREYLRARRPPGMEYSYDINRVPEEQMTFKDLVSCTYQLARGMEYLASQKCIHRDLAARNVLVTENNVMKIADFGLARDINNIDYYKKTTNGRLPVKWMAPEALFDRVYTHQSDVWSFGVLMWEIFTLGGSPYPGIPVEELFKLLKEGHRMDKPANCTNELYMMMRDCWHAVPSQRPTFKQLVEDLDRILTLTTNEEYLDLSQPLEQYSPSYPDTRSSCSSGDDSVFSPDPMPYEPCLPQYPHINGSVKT

Sequence of Protein kinase C delta type (Homo sapiens) (Q05655 whole entry, looked up, the tested form may be a part): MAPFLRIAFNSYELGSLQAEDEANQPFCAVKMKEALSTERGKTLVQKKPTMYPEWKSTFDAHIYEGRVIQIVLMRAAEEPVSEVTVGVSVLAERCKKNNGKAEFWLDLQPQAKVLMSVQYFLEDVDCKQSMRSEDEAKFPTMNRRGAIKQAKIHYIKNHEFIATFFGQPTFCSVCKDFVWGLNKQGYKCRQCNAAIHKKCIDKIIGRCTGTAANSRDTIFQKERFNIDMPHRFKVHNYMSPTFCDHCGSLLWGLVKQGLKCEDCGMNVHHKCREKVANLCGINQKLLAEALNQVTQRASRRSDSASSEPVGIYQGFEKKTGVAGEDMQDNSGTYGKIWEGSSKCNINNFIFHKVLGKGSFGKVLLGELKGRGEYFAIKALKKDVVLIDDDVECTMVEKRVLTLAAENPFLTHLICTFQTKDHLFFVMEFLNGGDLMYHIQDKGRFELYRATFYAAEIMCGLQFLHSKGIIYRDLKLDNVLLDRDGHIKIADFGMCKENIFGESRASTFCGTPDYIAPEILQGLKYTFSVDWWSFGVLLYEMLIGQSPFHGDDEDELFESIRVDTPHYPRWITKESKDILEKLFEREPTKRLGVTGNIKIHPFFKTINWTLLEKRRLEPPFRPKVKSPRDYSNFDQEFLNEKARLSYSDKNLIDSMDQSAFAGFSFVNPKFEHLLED
Sequence of Fibroblast growth factor receptor 4 (Homo sapiens) (P22455 22-802 limits assumed): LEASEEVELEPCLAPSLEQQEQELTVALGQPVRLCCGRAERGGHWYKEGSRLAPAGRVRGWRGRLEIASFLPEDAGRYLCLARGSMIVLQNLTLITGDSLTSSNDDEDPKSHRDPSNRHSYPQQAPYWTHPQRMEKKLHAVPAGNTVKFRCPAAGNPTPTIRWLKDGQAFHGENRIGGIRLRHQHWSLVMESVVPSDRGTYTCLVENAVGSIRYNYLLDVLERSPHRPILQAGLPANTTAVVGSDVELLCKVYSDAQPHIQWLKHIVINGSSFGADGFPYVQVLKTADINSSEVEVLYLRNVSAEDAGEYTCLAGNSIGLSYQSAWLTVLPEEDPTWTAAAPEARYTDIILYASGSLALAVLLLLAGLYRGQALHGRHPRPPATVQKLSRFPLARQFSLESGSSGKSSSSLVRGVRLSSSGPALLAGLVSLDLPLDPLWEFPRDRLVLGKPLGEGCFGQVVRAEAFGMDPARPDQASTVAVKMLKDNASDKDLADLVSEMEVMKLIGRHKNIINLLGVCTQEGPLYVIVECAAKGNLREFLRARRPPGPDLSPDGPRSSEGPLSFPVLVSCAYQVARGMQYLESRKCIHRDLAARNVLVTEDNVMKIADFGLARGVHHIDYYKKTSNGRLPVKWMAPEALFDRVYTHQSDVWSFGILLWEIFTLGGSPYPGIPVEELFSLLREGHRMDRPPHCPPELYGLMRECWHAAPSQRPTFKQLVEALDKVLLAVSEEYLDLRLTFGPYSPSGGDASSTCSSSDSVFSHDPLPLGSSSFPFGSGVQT

With `C[C@H](CN(C)C)Oc1nc(Nc2cc3cccc(Cl)c3cn2)cnc1C#N`, the inhibition in experiment [1] was found to be 3.5%. As for `NC1(Cc2ccc(Cl)cc2)CCN(c2ncnc3[nH]ccc23)CC1`, the inhibition in experiment [2] was determined as 2%; in experiment [3] it was 0%. Regarding `NCCc1ccc(-c2ncnc3[nH]cnc23)cc1`, the inhibition in experiment [4] was 40%. Turning to `NCC1CCN(c2ncnc3[nH]ccc23)CC1`, the inhibition in experiment [5] amounted to 27.5%. Turning to `CNCc1ccc(-c2ncnc3[nH]cnc23)cc1`, the inhibition in the experiment listed under Homo sapiens came out at 96%. With `COC(=O)c1cnc(Nc2cnc(C#N)cn2)cc1NCC1CCNCC1`, in experiment [6], the inhibition was determined as 6.5%.

The record behind these values is ChEMBL document CHEMBL3132769, “Fragment growing to retain or alter the selectivity of anchored kinase hinge-binding fragments” (Medchemcomm, 2014).
